Experiment: Solubility in aqueous solutions
Type: physicochemical
Description: The hydroquinones provided herein may be converted into salt form by reaction with an acid, or by reaction with an acid halide of an amino acid. In the examples, the C-17 alkyl amino group is protonated to generate a C-17 ammonium salt hydroquinone geldanamycin analog. In addition, the C-17 ammonium salt hydroquinones formed have the added benefit of being highly soluble in aqueous solutions (solubility >200 mg/mL), unlike 17-AAG (solubility <100 μg/mL).

## C=CCNC1=C2C[C@@H](C)C[C@H](OC)[C@H](O)[C@@H](C)/C=C(\C)[C@H](OC(N)=O)[C@@H](OC)/C=C\C=C(/C)C(=O)NC(=CC1=O)C2=O [Compound 17-AAG]
  solubility: < 100 µg/mL
